Data set [1] can be described thus: Absorption (AUC) by route of administration, Example 3. Particulars: after oropharyngeal (buccal) versus sublingual administration.
Data set [2] is described as follows: Effect of light on stability of methanolic CBME solutions, HPLC. In kind it is physicochemical. The following applies: for residual compound: amber glass protected, 112 days. The source says:
Experiments were set up to follow the effects of white light on the stability of methanolic solutions of THC, CBD or THCV. Following preliminary knowledge that light of different wavelengths may have differing effects on compound stability (viz. tretinoin is stable only in red light or darkness), samples were wrapped in coloured acetate films or in light exclusive foil. A concurrent experiment used charcoal treated CBME to study the effects of the removal of plant pigments on the degradation process.
Cannabinoids: 1 mg/ml solutions of CBME were made up in AR methanol. Methanolic solutions of CBME (100 mg/ml) were passed through charcoal columns (Biotage Flash 12AC 7.5 cm cartridges, b/no. 273012S) and were then diluted to 1 mg/ml. Solutions were stored in soda-glass vials, which were tightly screw capped and oversealed with stretch film. Tubes were wrapped in coloured acetate films as follows:
Solutions were also filled into the amber glass U-save vials; these were sealed with a septum and oversealed. One tube of each series of samples was tightly wrapped in aluminium foil in order to completely exclude light. This served as a “dark” control to monitor the contribution of ambient temperature to the degradation behaviour. All of the above tubes were placed in a box fitted with 2×40 watt white Osram fluorescent tubes. The walls of the box were lined with reflective foil and the internal temperature was monitored at frequent intervals.
A further tube of each series was stored at −20° C. to act as a pseudo to the reference sample; in addition, one tube was exposed directly to light without protection. Samples were withdrawn for chromatographic analysis at intervals up to 112 days following the start of the study. The study was designated AS01201/AX282.
(§1) Samples of the test solutions were withdrawn and diluted as appropriate for HPLC and TLC analysis. HPLC was carried out in accordance with TM GE.004.V1 (SOPam058). TLC was performed on layers on Silica gel (MN SilG/UV) in accordance with TM GE.002.V1 (SOPam056).
The results from the HPLC analysis of samples drawn from the stored, light exposed solutions, are plotted and presented as FIGS. 6 and 6a (THC before and after charcoal treatment), and FIGS. 7 and 7a (CBD before and after charcoal treatment).

Data set [3] is described as follows: Cannabinoid uptake, pump action sublingual spray. It is filed as in vivo, human. The following applies: dose approx 21 mg THC and 35 mg CBD; for Cmax / AUC(0-t): human, plasma; for AUC(0-t): read-out: AUC 0-12. The procedure: On moving to a pump action sublingual spray (following problems solubilising cannabinoids with hydrofluorocarbon propellant systems) the applicant obtained the results noted in Table 4. The solvent system comprised 50:50 ethanol to propylene glycol (v/v ratio) with THC 25 mg/ml; CBD 50 mg/ml and THC/CBD 25 mg/ml plus 50 mg/ml respectively.
The proportion of 11 hydroxy tetrahydro cannabinol to THC (AUC 0-12) was about 1.6. The profile for each cannabinoid was similar irrespective of the formulation (THC, CBD, THC plus CBD).
(§2) The data obtained is illustrated in FIGS. 1a, 1b and 2, which show the mean plasma concentrations for the formulations identified with reference to Tables 3 and 4.
That effective delivery of the cannabinoids can be achieved in a vehicle consisting of ethanol and propylene glycol is illustrated by the plasma levels shown in FIGS. 1a, 1b and 2. These show, respectively, formulations containing the high THC and high CBD formulations in FIGS. 1a and 1b. Similarly, the effectiveness of a defined ratio formulation THC:CBD 1:1 is illustrated in FIG. 2.

Data set [4] is described as follows: Cannabinoid uptake in patients, drops applied sublingually. It is filed as in vivo, human. Particulars: sublingual drops, dose approx 20 mg of each cannabinoid; for Cmax / AUC(0-t): human, plasma; for AUC(0-t): read-out: AUC 0-12. The procedure:
Initially the applicant looked at cannabinoid uptake in patients by applying drops sublingually (BDS dissolved in a mixture of a glycerol/propylene glycol and ethanol) THC 5 mg/ml, CBD 5 mg/ml and THC/CBD 5 mg/ml plus 5 mg/ml.
The results are noted in Table 3 below:
The proportion of 11 hydroxy tetrahydro cannabinol to THC (AUC 0-12) was about 1.9 indicating a significant amount of oral ingestion may have occurred.
as §2

The nature of data set [5]: Reports of subjects taking THCV. The following applies: compared with THC.
For data set [6] the following is noted: postural hypotension in naïve patients, hypertension reported on prolonged usage; cited from earlier work.
Data set [7] can be described thus: Effect of light on stability, TLC qualitative analysis. In kind it is physicochemical. The procedure:
as §1
The evaluation of the light degraded solutions using thin layer chromatography, used both the existing normal phase system (i.e. Silica stationary phase and hexane/diethyl ether as mobile phase) and two additional systems, capable of resolving more polar or polymeric products formed during the degradation processes.
At the same time, there was an increase in the intensity of Fast Blue B staining material running at, or close to, the origin.

For data set [8] the following is noted: CNS effect; Carlini et al, 1973; cited from earlier work.
Data set [9] can be described thus: Relative thermo-oxidative stability. Particulars: THC versus CBD.
For data set [10] the following is noted: THC alone versus same quantity of THC as Cannabis extract; cited from earlier work.

Entries after “also recorded” stand apart in the source; their conditions may differ.

Consider `CCCCCc1cc(O)c2c(c1)OC(C)(C)[C@@H]1CCC(CO)=C[C@@H]21` [11-OH THC, 11 hydroxy tetrahydro cannabinol], for which the “reduction in the amount of 11-hydroxy metabolite detected” value in data set [1] was “approximately 25%”.
As for `C=C(C)[C@@H]1CCC(C)=C[C@H]1c1c(O)cc(CCCCC)cc1O` [CBD, cannabidiol], the residual compound result in data set [2] (after charcoal treatment) is recorded as “approximately 64%”. Besides, in data set [2] (without charcoal clean up), the residual compound was about 38%. The “relative stability under photochemical stress” value in data set [2] (light exposed methanolic CBME solutions) is “significantly more sensitive to the effects of light than is THC; also recorded: markedly less stable than THC”. In addition, in [2] (no charcoal treatment, all light exposures except amber glass, foil and −20° storage, 1 mg/ml CBME in methanol), the “time to degradation to non-detectable levels” value is on record as under 40 days. In addition, in data set [3], the “Plasma levels after 6 hours” value is “Plasma levels after 6 hours were about 1 ng/ml THC and 1 ng/ml CBD”; the Cmax worked out at 8 ng/mL; the AUC(0-t) is about 22 ng·h/mL. In data set [4], the highest concentration (Cmax) stood at 2 ng/mL, the AUC(0-t) was about 8 ng·h/mL and the “Plasma levels after 6 hours” value is about 0.5 ng/mL.
For the compound `CCCc1cc(O)c2c(c1)OC(C)(C)[C@@H]1CCC(C)=C[C@@H]21` [THCV, Δ^9-tetrahydrocannabinol propyl analogue], in [5], the hangover result is “less severe hangover” and the “mood enhancement as reported by subjects” value was “less disturbing than that produced by THC”.
In the case of `CCCCCc1cc(O)c2c(c1)OC(C)(C)[C@@H]1CCC(C)=C[C@@H]21` [THC, Δ^9-tetrahydrocannabinol], in [6], the “effect on blood pressure” value is “§ THC has a biphasic effect on blood pressure; in naïve patients it may produce postural hypotension and it has also been reported to produce hypertension on prolonged usage”. In data set [2] (all solutions except those stored in the dark and at −20° C.), the “stability of charcoal treated versus untreated extract” value was “significant improvements to the stability”. Further, in data set [3], the “Plasma levels after 6 hours” value was “Plasma levels after 6 hours were about 1 ng/ml THC and 1 ng/ml CBD”; the peak concentration (Cmax) amounted to 6 ng/mL; the AUC(0-t) is about 16 ng·h/mL. For the same compound, the TLC spot intensity result in [7] (day 112, all colour filtered lights, hexane/diethyl ether system) is on record as “reduction in the intensity”. In data set [7] (day 112, foil protected solution), the TLC spot intensity result is recorded as “none of these effects”. Besides, in data set [8], the Anticonvulsant result is recorded as “† THC is pro convulsant”. Besides, the relative thermo-oxidative stability entry in data set [9] was “less stable”. Further, the “degree of pain relief” value in data set [10] is “lower degree of pain relief than the same quantity of THC given as an extract of Cannabis”. Moreover, in data set [4], the highest level (Cmax) was 6 ng/mL, the AUC(0-t) is about 16 ng·h/mL and the “Plasma levels after 6 hours” value was about 1 ng/mL.
